Experimental data taken from the NIST ThermoML archive (doi:10.1021/je049776w).

Experiments:
[1] = 101.3 kPa, Liquid
[2] = xn = mol fraction of the nth substance listed; settings: 101.3 kPa, Liquid

Cc1ccc(C)cc1 [1,4-dimethylbenzene]
[1]
Settings | mass density [kg/m3] | viscosity [mPa·s]
298.15 K | 856.7 | 0.6162
303.15 K | 852.35 | 0.5715
313.15 K | 843.64 | 0.508
323.15 K | 834.9 | 0.4599
333.15 K | 826.09 | 0.4298
343.15 K | 817.17 | 0.3783
353.15 K | 808.22 | 0.3382

Cc1ccc(C)cc1 [1,4-dimethylbenzene] + C1CCCCC1
[2]
Settings | mass density, 298.15 K [kg/m3] | mass density, 303.15 K [kg/m3] | mass density, 313.15 K [kg/m3] | mass density, 323.15 K [kg/m3] | mass density, 333.15 K [kg/m3] | viscosity, 298.15 K [mPa·s] | viscosity, 303.15 K [mPa·s] | viscosity, 313.15 K [mPa·s] | viscosity, 323.15 K [mPa·s] | viscosity, 333.15 K [mPa·s]
x1 = 0.0809 | 779.58 | 774.92 | 765.5 | 755.99 | 746.36 | 0.8232 | 0.7475 | 0.6401 | 0.5594 | 0.4874
x1 = 0.1655 | 786.02 | 781.39 | 772.07 | 762.67 | 753.14 | 0.757 | 0.6992 | 0.5981 | 0.526 | 0.4646
x1 = 0.2537 | 792.96 | 788.36 | 779.14 | 769.83 | 760.42 | 0.7177 | 0.6524 | 0.5739 | 0.5037 | 0.452
x1 = 0.3457 | 800.58 | 796.02 | 786.88 | 777.65 | 768.33 | 0.6773 | 0.6311 | 0.5481 | 0.4861 | 0.4338
x1 = 0.4422 | 808.68 | 804.15 | 795.1 | 785.98 | 776.74 | 0.6575 | 0.6059 | 0.5313 | 0.4722 | 0.423
x1 = 0.5431 | 817.38 | 812.89 | 803.91 | 794.86 | 785.72 | 0.6326 | 0.5868 | 0.5185 | 0.4638 | 0.4186
x1 = 0.6491 | 826.54 | 822.09 | 813.16 | 804.19 | 795.14 | 0.6219 | 0.5787 | 0.5108 | 0.458 | 0.4131
x1 = 0.7603 | 836.16 | 831.71 | 822.86 | 813.98 | 805 | 0.6175 | 0.5726 | 0.511 | 0.4569 | 0.4109
x1 = 0.8771 | 846.17 | 841.79 | 833 | 824.18 | 815.3 | 0.6139 | 0.5701 | 0.5052 | 0.4567 | 0.4124
x1 = 1 | 856.7 | 852.35 | 843.64 | 834.9 | 826.09 | 0.6162 | 0.5715 | 0.508 | 0.4599 | 0.4298
